Molecules are shown by their SMILES. pIC50: −log10 of the molar value.

For the assay, the target named is T1, Full length human recombinant HDAC6 protein (Homo sapiens, UniProt Q9UBN7).
T1 sequence (Q9UBN7 1-1215): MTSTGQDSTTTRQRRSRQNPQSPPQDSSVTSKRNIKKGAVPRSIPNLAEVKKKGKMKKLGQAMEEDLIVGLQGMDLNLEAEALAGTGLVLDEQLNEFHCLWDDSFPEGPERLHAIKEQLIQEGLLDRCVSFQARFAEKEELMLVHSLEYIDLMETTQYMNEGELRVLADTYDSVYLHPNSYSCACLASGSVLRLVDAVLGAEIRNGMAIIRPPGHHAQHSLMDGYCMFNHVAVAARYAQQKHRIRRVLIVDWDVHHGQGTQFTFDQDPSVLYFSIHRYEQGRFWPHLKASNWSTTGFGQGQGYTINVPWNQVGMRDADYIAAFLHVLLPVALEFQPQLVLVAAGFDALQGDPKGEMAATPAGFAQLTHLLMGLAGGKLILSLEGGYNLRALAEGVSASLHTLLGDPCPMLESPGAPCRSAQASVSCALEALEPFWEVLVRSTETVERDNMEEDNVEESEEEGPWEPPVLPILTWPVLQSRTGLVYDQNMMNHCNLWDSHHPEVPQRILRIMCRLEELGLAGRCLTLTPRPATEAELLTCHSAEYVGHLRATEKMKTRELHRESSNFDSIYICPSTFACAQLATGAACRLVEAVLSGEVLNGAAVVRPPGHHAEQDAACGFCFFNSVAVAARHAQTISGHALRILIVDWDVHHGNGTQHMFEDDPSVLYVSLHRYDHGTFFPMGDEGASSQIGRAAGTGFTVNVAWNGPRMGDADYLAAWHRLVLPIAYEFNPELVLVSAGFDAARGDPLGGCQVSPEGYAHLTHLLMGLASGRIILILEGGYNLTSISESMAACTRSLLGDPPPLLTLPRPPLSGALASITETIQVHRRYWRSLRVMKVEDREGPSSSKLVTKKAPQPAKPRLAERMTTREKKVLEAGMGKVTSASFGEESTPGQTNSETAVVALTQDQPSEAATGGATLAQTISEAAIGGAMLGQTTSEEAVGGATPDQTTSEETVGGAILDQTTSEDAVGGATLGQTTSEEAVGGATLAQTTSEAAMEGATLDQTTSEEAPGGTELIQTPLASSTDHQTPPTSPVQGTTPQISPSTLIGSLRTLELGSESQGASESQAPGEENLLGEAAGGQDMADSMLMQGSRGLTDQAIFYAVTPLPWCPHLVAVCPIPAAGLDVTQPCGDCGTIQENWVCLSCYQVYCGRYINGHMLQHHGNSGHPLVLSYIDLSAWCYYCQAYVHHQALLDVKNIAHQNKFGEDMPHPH
As to the kind of experiment: In vitro histone deacetylase assay: enzymatic HDAC6 electrophoretic mobility shift assay. Format: biochemical. The note with it: 1 nM enzyme, 2 μM peptide substrate RHKK(Ac)-NH2, 25° C., 12 concentrations; read-out: Inhibitory Concentration (IC50) Values against HDAC6, Activity Range.

For `C[C@H]1COc2cc(C(=O)NO)ccc2CN1C(=O)C(C)(C)c1cccnc1` [(S)-N-hydroxy-3-methyl-4-(2-methyl-2-(pyridin-3-yl)propanoyl)-2,3,4,5-tetrahydrobenzo[f][1,4]oxazepine-8-carboxamide], the pIC50 was no less than 7.00.

Turning to `C[C@H]1COc2cc(C(=O)NO)ccc2CN1C(=O)C(C)(C)C1CCOCC1` [(S)-N-hydroxy-3-methyl-4-(2-methyl-2-(tetrahydro-2H-pyran-4-yl)propanoyl)-2,3,4,5-tetrahydrobenzo[f][1,4]oxazepine-8-carboxamide], the pIC50 was no less than 7.00.

As for `C[C@H]1COc2cc(C(=O)NO)ccc2CN1C(=O)CCOCC(F)(F)F` [(S)-N-hydroxy-3-methyl-4-(3-(2,2,2-trifluoroethoxy)propanoyl)-2,3,4,5-tetrahydrobenzo[f][1,4]oxazepine-8-carboxamide], the pIC50 is no less than 7.00.

Regarding `C[C@H]1COc2cc(C(=O)NO)ccc2CN1C(=O)CCOC1CCOCC1` [(S)-N-hydroxy-3-methyl-4-(3-((tetrahydro-2H-pyran-4-yl)oxy)propanoyl)-2,3,4,5-tetrahydrobenzo[f][1,4]oxazepine-8-carboxamide], the pIC50 is 6.30 to 7.00.

Consider `C[C@H]1COc2cc(C(=O)NO)ccc2CN1C(=O)C1(C)COC1` [(S)-N-hydroxy-3-methyl-4-(3-methyloxetane-3-carbonyl)-2,3,4,5-tetrahydrobenzo[f][1,4]oxazepine-8-carboxamide], for which the pIC50 is no less than 7.00.

With `C[C@H]1COc2cc(C(=O)NO)ccc2CN1C(=O)C1(C)CCOCC1` [(S)-N-hydroxy-3-methyl-4-(4-methyltetrahydro-2H-pyran-4-carbonyl)-2,3,4,5-tetrahydrobenzo[f][1,4]oxazepine-8-carboxamide], the pIC50 was no less than 7.00.

On to `C[C@H]1OCCC[C@@H]1C(=O)N1Cc2ccc(C(=O)NO)cc2OC[C@@H]1C` [(S)-N-hydroxy-3-methyl-4-((2R,3S)-2-methyltetrahydro-2H-pyran-3-carbonyl)-2,3,4,5-tetrahydrobenzo[f][1,4]oxazepine-8-carboxamide], for which the pIC50 is no less than 7.00.

In the case of `C[C@H]1COc2cc(C(=O)NO)ccc2CN1C(=O)[C@@]1(C)CCCCO1` [(S)-N-hydroxy-3-methyl-4-((R)-2-methyltetrahydro-2H-pyran-2-carbonyl)-2,3,4,5-tetrahydrobenzo[f][1,4]oxazepine-8-carboxamide], the pIC50 is 6.30 to 7.00.

For the compound `C[C@H]1COc2cc(C(=O)NO)ccc2CN1C(=O)[C@]1(C)CCOC1` [(S)-N-hydroxy-3-methyl-4-((R)-3-methyltetrahydrofuran-3-carbonyl)-2,3,4,5-tetrahydrobenzo[f][1,4]oxazepine-8-carboxamide], the pIC50 was no less than 7.00.

On to `C[C@H]1COc2cc(C(=O)NO)ccc2CN1C(=O)[C@H]1CCCCO1` [(S)-N-hydroxy-3-methyl-4-((R)-tetrahydro-2H-pyran-2-carbonyl)-2,3,4,5-tetrahydrobenzo[f][1,4]oxazepine-8-carboxamide], for which the pIC50 was no less than 7.00.

In the case of `C[C@H]1COc2cc(C(=O)NO)ccc2CN1C(=O)[C@@H]1CCCOC1` [(S)-N-hydroxy-3-methyl-4-((R)-tetrahydro-2H-pyran-3-carbonyl)-2,3,4,5-tetrahydrobenzo[f][1,4]oxazepine-8-carboxamide], the pIC50 was no less than 7.00.

Turning to `C[C@H]1COc2cc(C(=O)NO)ccc2CN1C(=O)[C@@H]1CCOC1` [(S)-N-hydroxy-3-methyl-4-((R)-tetrahydrofuran-3-carbonyl)-2,3,4,5-tetrahydrobenzo[f][1,4]oxazepine-8-carboxamide], the pIC50 was no less than 7.00.

On to `C[C@H]1COc2cc(C(=O)NO)ccc2CN1C(=O)[C@]1(C)CCCCO1` [(S)-N-hydroxy-3-methyl-4-((S)-2-methyltetrahydro-2H-pyran-2-carbonyl)-2,3,4,5-tetrahydrobenzo[f][1,4]oxazepine-8-carboxamide], for which the pIC50 was no less than 7.00.

For the compound `C[C@H]1COc2cc(C(=O)NO)ccc2CN1C(=O)[C@@]1(C)CCOC1` [(S)-N-hydroxy-3-methyl-4-((S)-3-methyltetrahydrofuran-3-carbonyl)-2,3,4,5-tetrahydrobenzo[f][1,4]oxazepine-8-carboxamide], the pIC50 is no less than 7.00.

Turning to `C[C@H]1COc2cc(C(=O)NO)ccc2CN1C(=O)[C@@H]1CCCCO1` [(S)-N-hydroxy-3-methyl-4-((S)-tetrahydro-2H-pyran-2-carbonyl)-2,3,4,5-tetrahydrobenzo[f][1,4]oxazepine-8-carboxamide], the pIC50 was no less than 7.00.

As to `C[C@H]1COc2cc(C(=O)NO)ccc2CN1C(=O)[C@H]1CCCOC1` [(S)-N-hydroxy-3-methyl-4-((S)-tetrahydro-2H-pyran-3-carbonyl)-2,3,4,5-tetrahydrobenzo[f][1,4]oxazepine-8-carboxamide], the pIC50 is no less than 7.00.

On to `C[C@H]1COc2cc(C(=O)NO)ccc2CN1C(=O)[C@H]1CCOC1` [(S)-N-hydroxy-3-methyl-4-((S)-tetrahydrofuran-3-carbonyl)-2,3,4,5-tetrahydrobenzo[f][1,4]oxazepine-8-carboxamide], for which the pIC50 was no less than 7.00.

On to `C[C@H]1COc2cc(C(=O)NO)ccc2CN1C(=O)C1COC1` [(S)-N-hydroxy-3-methyl-4-(oxetane-3-carbonyl)-2,3,4,5-tetrahydrobenzo[f][1,4]oxazepine-8-carboxamide], for which the pIC50 is no less than 7.00.

Take `C[C@H]1COc2cc(C(=O)NO)ccc2CN1C(=O)C1CCOCC1` [(S)-N-hydroxy-3-methyl-4-(tetrahydro-2H-pyran-4-carbonyl)-2,3,4,5-tetrahydrobenzo[f][1,4]oxazepine-8-carboxamide]: the pIC50 was no less than 7.00.

For the compound `CCC(=O)N1Cc2ccc(C(=O)NO)cc2OC[C@@H]1C` [(S)-N-hydroxy-3-methyl-4-propionyl-2,3,4,5-tetrahydrobenzo[f][1,4]oxazepine-8-carboxamide], the pIC50 was no less than 7.00.

As for `COCC1(C(=O)N2Cc3ccc(C(=O)NO)cc3OC[C@@H]2C)CCC1` [(S)-N-hydroxy-4-(1-(methoxymethyl)cyclobutane-1-carbonyl)-3-methyl-2,3,4,5-tetrahydrobenzo[f][1,4]oxazepine-8-carboxamide], the pIC50 is no less than 7.00.

As to `COCC1(C(=O)N2Cc3ccc(C(=O)NO)cc3OC[C@@H]2C)CC1` [(S)-N-hydroxy-4-(1-(methoxymethyl)cyclopropane-1-carbonyl)-3-methyl-2,3,4,5-tetrahydrobenzo[f][1,4]oxazepine-8-carboxamide], the pIC50 is no less than 7.00.

As for `COC1(C(=O)N2Cc3ccc(C(=O)NO)cc3OC[C@@H]2C)CCC1` [(S)-N-hydroxy-4-(1-methoxycyclobutane-1-carbonyl)-3-methyl-2,3,4,5-tetrahydrobenzo[f][1,4]oxazepine-8-carboxamide], the pIC50 was no less than 7.00.

Consider `COC1(C(=O)N2Cc3ccc(C(=O)NO)cc3OC[C@@H]2C)CCCCC1` [(S)-N-hydroxy-4-(1-methoxycyclohexane-1-carbonyl)-3-methyl-2,3,4,5-tetrahydrobenzo[f][1,4]oxazepine-8-carboxamide], for which the pIC50 is no less than 7.00.

For `COC1(C(=O)N2Cc3ccc(C(=O)NO)cc3OC[C@@H]2C)CCCC1` [(S)-N-hydroxy-4-(1-methoxycyclopentane-1-carbonyl)-3-methyl-2,3,4,5-tetrahydrobenzo[f][1,4]oxazepine-8-carboxamide], the pIC50 was no less than 7.00.

For `COC1(C(=O)N2Cc3ccc(C(=O)NO)cc3OC[C@@H]2C)CC1` [(S)-N-hydroxy-4-(1-methoxycyclopropane-1-carbonyl)-3-methyl-2,3,4,5-tetrahydrobenzo[f][1,4]oxazepine-8-carboxamide], the pIC50 is no less than 7.00.

For the compound `CC1(C(=O)N2Cc3ccc(C(=O)NO)cc3O[C@@H](c3ccccc3)C2)CCC1` [(S)-N-hydroxy-4-(1-methylcyclobutane-1-carbonyl)-2-phenyl-2,3,4,5-tetrahydrobenzo[f][1,4]oxazepine-8-carboxamide], the pIC50 was no less than 7.00.

Regarding `COC(C)(C)C(=O)N1Cc2ccc(C(=O)NO)cc2OC[C@@H]1C` [(S)-N-hydroxy-4-(2-methoxy-2-methylpropanoyl)-3-methyl-2,3,4,5-tetrahydrobenzo[f][1,4]oxazepine-8-carboxamide], the pIC50 is no less than 7.00.

As to `C[C@H](C(=O)N1CCOc2cc(C(=O)NO)ccc2C1)c1ccccc1` [(S)-N-hydroxy-4-(2-phenylpropanoyl)-2,3,4,5-tetrahydrobenzo[f][1,4]oxazepine-8-carboxamide], the pIC50 is 6.30 to 7.00.

Source of the values: patent US11891365B2, “3-alkyl-4-amido-bicyclic [4,5,0] hydroxamic acids as HDAC inhibitors” (Valo Health, Inc., priority 2015, dated 2024).
